What was measured:
RPS11 KO SNB19 cells = test: Viability assay, RPS11 KO cells; assay type: cell-based, human; conditions: 5 μM, 72 hrs
Experimental: (§1) Single gene editing. To edit FANCB and RPS11, we used single guide RNAs that were enriched for both genes as well as the non-targeting controls. Briefly, these guides were synthesized by Synthego and following the protocol, we prepared the ribonucleoprotein complexes by mixing the guides (180 pmol) with recombinant Cas9 protein (Synthego) 20 pmol in […]. The complexes were allowed to form at room temp for 15 mins, and then […] of Opti-MEM I reduced serum medium and […] of lipofectamine Cas9 plus reagent were then added. Both, the cells and the formed ribonucleoprotein complexes, were seeded at the same time with 150,000 SNB19 cells in a T25 flask. The cells were incubated for 4 days.
(§2) Viability assay. […] Titre glo was added following incubation with drugs. (Cat No: G7572) and the viability of cells was analyzed 5 min later by measuring the luminescence. We normalized the intensity against DMSO treated cells of each cell line or PDX or the edited cell and then determined the survival. Pictures of these cells were also taken as shown in the source data figures.

FANCB KO SNB19 cells = test: Viability assay, FANCB KO cells; assay type: cell-based, human; conditions: 5 μM, 72 hrs
Experimental: as §1, §2

GBM12 [1] = test: Etoposide dose-response viability; assay type: cell-based, human; conditions: GBM12, dose-response in vitro 72 hrs
Experimental: as §2

U251 [2] = test: Etoposide dose-response viability; assay type: cell-based, human; conditions: U251, dose-response in vitro 72 hrs
Experimental: as §2

MES83 = test: Etoposide dose-response viability; assay type: cell-based, human; conditions: MES83, dose-response in vitro 72 hrs
Experimental: as §2

GBM6 [3] = test: Etoposide dose-response viability; assay type: cell-based, human; conditions: GBM6, dose-response in vitro 72 hrs
Experimental: as §2

GBM43 = test: Etoposide dose-response viability; assay type: cell-based, human; conditions: GBM43, dose-response in vitro 72 hrs
Experimental: as §2

[4] = test system: resistant glioma cell lines; test: Viability assay, resistant glioma cell lines; assay type: cell-based, human; conditions: etoposide 5 μM, 72 hrs
Experimental: as §2

BCL2, GBM12 = test: BCL2 expression by flow cytometry; assay type: cell-based, human; conditions: GBM12, 24 hrs
Experimental: (§3) Click-it Plus OPP Assay, Apoptosis Assay and Flow Cytometry. To determine if nascent protein synthesis is impaired upon editing of RPS11 and FANCB. We seeded edited cells SgRPS11, SgFANCB, wild type SNB19 and the non-targeting controls in a 96 well plate with black covers overnight at 4,000 cells/well. […] Following the protocol from Life technologies (Cat No: C10456), we added the Click-it OPP (1:1000), or Caspase 3/7 (Cat no: C10427) or with antibodies against BID, BCL2 or APAF1 for 30 mins. After washing cells were fixed and primary antibodies were detected secondary antibodies conjugated to Alexa Flour 488. The fluorophore intensity was measured by flow cytometry (LSR Fortessa 1 analyzer). As a complementary approach, the labelled cells were also imaged in a fluorescent microscope (Nikon Ti2 Widefield).

[5] = gliomas and brain metastases, systemic administration, human; cited from earlier work
[6] = test system: BID, susceptible glioma cells; test: BID expression by flow cytometry; assay type: cell-based, human; conditions: susceptible glioma cells compared to resistant cells, 24 hrs
Experimental: as §3

SNB19 [7] = test: Viability assay (Titre glo), susceptible glioma cell line; assay type: cell-based, human; conditions: etoposide 5 μM, 72 hrs
Experimental: as §2

GBM6 [8] = test: Click-it Plus OPP nascent protein synthesis; assay type: cell-based, human; conditions: GBM6, 5 μM, 24 hrs
U251 [9] = test: Click-it Plus OPP nascent protein synthesis; assay type: cell-based, human; conditions: U251, 5 μM, 24 hrs
SNB19 cells = test: Genome-wide CRISPR KO screen, etoposide selection; assay type: cell-based, human; conditions: etoposide 5 μM, 14 days, CRISPR KO library SNB19 cells
Experimental: Large scale cell culture and expansion. To perform the CRISPR screening, SNB19 cells were expanded to 500 million and then spinfected with 70,000sgRNA. After spinfection, the cells are selected with 0.6 μg/ml of puromycin for 4 days. This selection is aimed at the cells that have been rightly integrated with the sgRNA that incorporates the puromycin cassette into their genome. […] We used 50 million of selected cells for the extraction of genomic DNA. The base sgRNA representation is obtained by amplification of the sgRNA with unique barcoded primers. The remaining 100 million cells were expanded for 2 days, once cells grew to 200 million. […] After 14 days, the cells were harvested, the gDNA extracted, and the sgRNA amplified with another unique barcoded primer.

SNB19 [10] = test: Click-it Plus OPP nascent protein synthesis; assay type: cell-based, human; conditions: SNB19, 5 μM, 24 hrs
Experimental: as §3

GBM12 [11] = test: Click-it Plus OPP nascent protein synthesis; assay type: cell-based, human; conditions: GBM12, 5 μM, 24 hrs
APAF1, RPS11 KO cells = test: APAF1 expression (qRT-PCR, Western blot); assay type: cell-based, human
Experimental: (§4) Western blot. […] The cells were lysed using water bath ultrasonicator for 4 mins. Cell lysate were cleared by centrifugation. We measured the concentration of protein in lysates. Denatured lysates were loaded into 4-20% Tris-glycine gels (Novex) and separated at 180V for 2 hrs. The gels were transferred unto a PVDF membrane by semi-dry blotting for 1 hr. We blocked the membrane in 5% non-fat milk TBST buffer for 30 mins and incubated with primary antibodies RPS11 (1:500), FANCB (1:500), GAPDH or ACTB (1:1500) in 5% BSA respectively over night shaking at 4° C. Primary antibodies were removed and we added the secondary polyclonal HRP (1:20,000) in TBST and incubated shaking for 2 hrs at room temp. The membrane were washed 6× in TBST and then developed with ECL (Cat No: 1705061) and band imaged on a Bio-Rad Chemi-doc imaging system. qRT-PCR. […] The total RNA was extracted using Zymo Research kit (Direct-zol RNA Miniprep Plus, Cat no: R2070). The quality of the RNA was determined by RNA pico bioanalyzer measuring the 18S and 28S ribosome. Using the superscript III first strand synthesis system (Cat no: 18080-051), we generated cDNA and performed qPCR with APAF1 and ACTB primers in triplicates and fold change of expression of APAF1 were normalized against actin B (ACTB).

[12] = test system: APAF1, SNB19 WT and non-targeting control cells; test: APAF1 expression (qRT-PCR, Western blot); assay type: cell-based, human
Experimental: as §4

BCL2, GBM6 = test: BCL2 expression by flow cytometry; assay type: cell-based, human; conditions: GBM6, 24 hrs

Structure (SMILES): COc1cccc2c1C(=O)c1c(O)c3c(c(O)c1C2=O)C[C@@](O)(C(=O)CO)C[C@@H]3O[C@H]1C[C@H](N)[C@H](O)[C@H](C)O1 [doxorubicin]
- susceptibility (viability) (RPS11 KO SNB19 cells): resistant
- susceptibility (viability) (FANCB KO SNB19 cells): acquired resistance

Structure (SMILES): COc1cc([C@@H]2c3cc4c(cc3[C@@H](O[C@@H]3O[C@@H]5CO[C@@H](C)O[C@H]5[C@H](O)[C@H]3O)[C@H]3COC(=O)[C@H]23)OCO4)cc(OC)c1O [etoposide]
- susceptibility to etoposide (GBM12 [1]): resistance
- susceptibility to etoposide (U251 [2]): susceptible
- susceptibility to etoposide (MES83): susceptible
- susceptibility to etoposide (GBM6 [3]): resistance
- susceptibility to etoposide (GBM43): less sensitive
- cell death [4]: minimal cell death
- susceptibility (viability) (RPS11 KO SNB19 cells): resistant
- BCL2 expression following etoposide treatment (BCL2, GBM12): increase
- intratumoral concentration in tumor tissue [5]: 2 to 6 µM
- BID expression following etoposide treatment [6]: increased BID expression
- cells death (SNB19 [7]): 80%
- nascent proteins following etoposide treatment (GBM6 [8]): no decrease in nascent proteins
- nascent proteins following etoposide treatment (U251 [9]): decrease in nascent proteins
- cells surviving treatment (SNB19 cells): less than 1%
- nascent proteins following etoposide treatment (SNB19 [10]): decrease in nascent proteins
- nascent proteins following etoposide treatment (GBM12 [11]): no decrease in nascent proteins
- susceptibility (viability) (FANCB KO SNB19 cells): acquired resistance
- APAF1 protein following etoposide treatment (APAF1, RPS11 KO cells): decrease
- APAF1 transcript following etoposide treatment (APAF1, RPS11 KO cells; 24 hrs): no significant expression changes
- APAF1 transcript following etoposide treatment ([12]; SNB19 WT and non-targeting control cells, 24 hrs): significant induction
- APAF1 protein levels following etoposide treatment ([12]; SNB19 wild-type and non-targeting control cells): increased
- BCL2 expression following etoposide treatment (BCL2, GBM6): increase

Source: patent US20220152071A1, “MARKERS OF EFFICACY OF TOPOISOMERASE POISONS” (Northwestern University, priority 2019, published 2022)
